According to US9815796B2 (Merck Sharp & Dohme Corp., priority 2013, dated 2017):

Target: human PDE2A1 (Homo sapiens (Human), UniProt O00408)
Assay: IMAP FP PDE selectivity panel, human PDE2A1
Type: biochemical
Conditions: Human PDE2, Lab B; read-out: Human PDE2 Ki (nM) - Lab B
Method: Selectivity for PDE2, as compared to other PDE families, was assessed using the IMAP® technology. Human PDE 10A2 enzyme was prepared from cytosolic fractions of transiently transfected HEK cells. All other PDE's were GST Tag human enzyme expressed in insect cells and were obtained from BPS Bioscience (San Diego, Calif.): PDE1A (Cat#60010), human PDE2A1 (Cat#60020), PDE3A (Cat#60030), PDE4A1A (Cat#60040), PDE5A1 (Cat#60050), PDE6C (Cat#60060), PDE7A (Cat#60070), PDE8A1 (Cat#60080), PDE9A2 (Cat#60090), PDE11A4 (Cat#60110).
Assays for PDE 1 through 11 were performed in parallel at room temperature in 384-well microtiter plates with an incubation volume of 20.2 μL. Solutions of test compounds were prepared in DMSO and serially diluted with DMSO to yield 30 μL of each of ten solutions differing by 3-fold in concentration, at 32 serial dilutions per plate. […] A Labcyte POD 810 (Labcyte, Sunnyvale, Calif.) was used to dispense 200 nL from each well of the titration plate to make eleven copies of the assay plate for each titration, one copy for each PDE enzyme. A solution of each enzyme (dilution from aliquots, sufficient to produce 20% substrate conversion) and a separate solution of FAM-labeled cAMP or FAM-labeled cGMP from Molecular Devices (Sunnyvale, Calif., product # R7506 or cGMP#R7508), at a final concentration of 50 nM were made in the assay buffer (10 mM Tris HCl, pH 7.2, 10 mM MgCl2, 0.05% NaN3 0.01% Tween-20, and 1 mM DTT). Note that the substrate for PDE2 is 50 nM FAM cAMP containing 1000 nM of cGMP. The enzyme and the substrate were then added to the assay plates in two consecutive additions of 10 μL and then shaken to mix. The reaction was allowed to proceed at room temperature for 60 minutes. A binding solution was then made from the kit components, comprised of 80% Solution A, 20% Solution B and binding reagent at a volume of 1/600 the total binding solution. The enzymatic reaction was stopped by addition of 60 μL of the binding solution to each well of the assay plate. The plates were sealed and shaken for 10 seconds. The plates were incubated at room temperature for one hour, then the parallel and perpendicular fluorescence was measured using a Tecan Genios Pro plate reader (Tecan, Switzerland). The apparent inhibition constants for the compounds against all 11 PDE's was determined from the parallel and perpendicular fluorescent readings as described for PDE10 FP assay using the following apparent KM values for each enzyme and substrate combination: PDE1A (FAM cGMP) 70 nM, human PDE2A1 (FAM cAMP) 10,000 nM, PDE3A (FAM cAMP) 50 nM, PDE4A1A (FAM cAMP) 1500 nM, PDE5A1 (FAM cGMP) 400 nM, PDE6C (FAM cGMP) 700 nM, PDE7A (FAM cAMP) 150 nM, PDE8A1 (FAM cAMP) 50 nM, PDE9A2 (FAM cGMP) 60 nM, PDE10A2 (FAM cAMP) 150 nM, PDE11A4 (FAM cAMP) 1000 nM. The intrinsic PDE2 inhibitory activity of a compound which may be used in accordance with the present invention may be determined by these assays.

Sequence of human PDE2A1 (O00408 other isoform, or with tags, fused parts or gaps): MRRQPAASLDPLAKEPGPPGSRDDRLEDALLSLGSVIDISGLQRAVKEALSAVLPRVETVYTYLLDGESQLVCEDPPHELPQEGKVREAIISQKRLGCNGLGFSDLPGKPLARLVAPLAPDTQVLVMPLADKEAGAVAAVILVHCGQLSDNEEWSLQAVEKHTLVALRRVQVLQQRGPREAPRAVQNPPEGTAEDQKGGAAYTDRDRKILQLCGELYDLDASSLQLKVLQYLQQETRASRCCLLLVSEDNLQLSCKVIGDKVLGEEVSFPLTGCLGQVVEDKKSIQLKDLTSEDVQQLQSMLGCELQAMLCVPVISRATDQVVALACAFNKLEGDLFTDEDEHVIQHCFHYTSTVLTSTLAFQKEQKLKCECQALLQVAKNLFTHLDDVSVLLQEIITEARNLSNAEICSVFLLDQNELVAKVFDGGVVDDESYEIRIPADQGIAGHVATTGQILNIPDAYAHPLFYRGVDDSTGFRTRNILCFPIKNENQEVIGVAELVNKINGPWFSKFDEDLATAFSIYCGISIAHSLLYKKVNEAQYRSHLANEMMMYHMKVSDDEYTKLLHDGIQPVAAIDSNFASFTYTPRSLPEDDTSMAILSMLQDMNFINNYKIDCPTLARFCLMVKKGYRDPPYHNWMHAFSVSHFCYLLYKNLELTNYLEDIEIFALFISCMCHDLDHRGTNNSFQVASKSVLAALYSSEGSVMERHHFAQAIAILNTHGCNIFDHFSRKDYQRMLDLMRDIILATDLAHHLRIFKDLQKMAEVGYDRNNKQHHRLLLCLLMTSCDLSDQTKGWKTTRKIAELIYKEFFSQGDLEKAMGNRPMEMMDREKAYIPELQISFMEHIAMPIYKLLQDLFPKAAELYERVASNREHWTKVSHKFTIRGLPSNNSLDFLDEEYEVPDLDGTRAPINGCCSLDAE

Row | Ki [nM] | Structure (SMILES)
1 | > 2960 | CC(NC(=O)c1cc(=O)[nH]c(-c2ncccn2)n1)c1ccc(C2(C(F)(F)F)CC2)cc1 (single isomer, unassigned) [Example 692, (S)- or (R)-6-oxo-2-(pyrimidin-2-yl)-N-(1-(4-(1-(trifluoromethyl)cyclopropyl)phenyl)-ethyl)-1,6-dihydropyrimidine-4-carboxamide]
2 | 3.8 | CC1(c2ccc(C(NC(=O)c3cc(=O)[nH]c(-c4ccccc4)n3)C(C)(C)C)cc2F)CC1 (single isomer, unassigned) [Example 715, (R)- or (S)-N-(1-(3-fluoro-4-(1-methylcyclopropyl)phenyl)-2,2-dimethylpropyl)-6-oxo-2-phenyl-1,6-dihydropyrimidine-4-carboxamide]
3 | 120 | COc1cc(C(F)(F)F)ccc1C(C)(C)NC(=O)c1cc(=O)[nH]c(C)n1 [Example 594, N-{1-[2-methoxy-4-(trifluoromethyl)phenyl]-1-methylethyl}-2-methyl-6-oxo-1,6-dihydropyrimidine-4-carboxamide]
4 | 3.7 | CCc1nc(C(=O)N[C@H](C)c2ccc(OC(F)(F)F)c(F)c2)cc(=O)[nH]1 [Example 598, 2-ethyl-N-{(1R)-1-[3-fluoro-4-(trifluoromethoxy)phenyl]ethyl}-6-oxo-1,6-dihydropyrimidine-4-carboxamide]
5 | 16 | Cc1nc(C(=O)N[C@@H](c2ccc(C3(C)CC3)cc2)C(C)C)cc(=O)[nH]1 [Example 532, 2-methyl-N-{(1R)-2-methyl-1-[4-(1-methylcyclopropyl)phenyl]propyl}-6-oxo-1,6-dihydropyrimidine-4-carboxamide]
6 | 157 | O=C(N[C@@H]1COCc2cc(C(F)(F)F)ccc21)c1cc(=O)[nH]c(-c2ccccc2)n1 [Example 551, 6-oxo-2-phenyl-N-[(4S)-7-(trifluoromethyl)-3,4-dihydro-1H-isochromen-4-yl]-1,6-dihydropyrimidine-4-carboxamide]
7 | 15 | CC(C)[C@@H](NC(=O)c1cc(=O)[nH]c(-c2ncccn2)n1)c1ccc2c(c1)OC(F)(F)O2 [Example 592, N-[(1R)-1-(2,2-difluoro-1,3-benzodioxol-5-yl)-2-methylpropyl]-6-oxo-1,6-dihydro-2,2′-bipyrimidine-4-carboxamide]
8 | 7.7 | CCC(C)(NC(=O)c1cc(=O)[nH]c(C)n1)c1ccc(C(F)(F)F)cc1F (single isomer, unassigned) [Example 719, (R)- or (S)-N-(2-(2-fluoro-4-(trifluoromethyl)phenyl)butan-2-yl)-2-methyl-6-oxo-1,6-dihydropyrimidine-4-carboxamide]
9 | 21 | O=C(NC1(c2ccc(S(F)(F)(F)(F)F)cc2)CC1)c1cc(=O)[nH]c(-c2ncccn2)n1 [Example 570, 6-oxo-N-{1-[4-(pentafluoro-λ^6-sulfanyl)phenyl]cyclopropyl}-1,6-dihydro-2,2′-bipyrimidine-4-carboxamide]
10 | 1.2 | CC(C)(C)[C@@H](NC(=O)c1cc(=O)[nH]c(-c2ccccc2)n1)c1ccc(C2CC2)c(F)c1 [Example 539, N-[(1R)-1-(4-cyclopropyl-3-fluorophenyl)-2,2-dimethylpropyl]-6-oxo-2-phenyl-1,6-dihydropyrimidine-4-carboxamide]
11 | 3.8 | Cc1nc(C(=O)N[C@@H](c2ccc(C3CC3)cc2)C2(C)CC2)cc(=O)[nH]1 [Example 658, N-[(R)-(4-cyclopropylphenyl)(1-methylcyclopropyl)methyl]-2-methyl-6-oxo-1,6-dihydropyrimidine-4-carboxamide]
12 | 47 | Cc1nc(C(=O)N[C@@H](c2ccc(C(F)F)cc2)C2CC2)cc(=O)[nH]1 [Example 649, N-{(1R)-cyclopropyl[4-(difluoromethyl)phenyl]methyl}-2-methyl-6-oxo-1,6-dihydropyrimidine-4-carboxamide]
13 | 33 | Cc1nc(C(=O)N[C@@H](c2ccc(C(F)F)c(F)c2)C(C)C)cc(=O)[nH]1 [Example 650, N-{(1R)-1-[4-(difluoromethyl)-3-fluorophenyl]-2-methylpropyl}-2-methyl-6-oxo-1,6-dihydropyrimidine-4-carboxamide]
14 | 7.7 | CC(C)(C)[C@@H](NC(=O)c1cc(=O)[nH]c(-c2ncccn2)n1)c1ccc(C(F)(F)F)c(F)c1 [Example 556, N-{(1R)-1-[3-fluoro-4-(trifluoromethyl)phenyl]-2,2-dimethylpropyl}-6-oxo-1,6-dihydro-2,2′-bipyrimidine-4-carboxamide]
15 | 59 | Cc1nc(C(=O)N[C@@](C)(CO)c2ccc(C(F)(F)F)cc2)cc(=O)[nH]1 [Example 635, N-{(1R)-2-hydroxy-1-methyl-1-[4-(trifluoromethyl)phenyl)ethyl}-2-methyl-6-oxo-1,6-dihydropyrimidine-4-carboxamide]
16 | 17 | C[C@@H](NC(=O)c1cc(=O)[nH]c(-c2ccccc2)n1)c1cc(F)c(C(F)(F)F)cc1F [Example 550, N-{(1R)-1-[2,5-difluoro-4-(trifluoromethyl)phenyl]ethyl}-6-oxo-2-phenyl-1,6-dihydropyrimidine-4-carboxamide]
17 | 5.2 | CC(C)[C@@H](NC(=O)c1cc(=O)[nH]c(-c2ccccc2)n1)c1ccc(OC(F)F)cc1 [Example 543, N-{(1R)-1-[4-(difluoromethoxy)phenyl]-2-methylpropyl}-6-oxo-2-phenyl-1,6-dihydropyrimidine-4-carboxamide]
18 | 8 | CC1([C@@H](NC(=O)c2cc(=O)[nH]c(-c3ncccn3)n2)c2ccc(C(F)(F)F)c(F)c2)CC1 [Example 583, N-[(R)-[3-fluoro-4-(trifluoromethyl)phenyl](1-methylcyclopropyl)methyl]-6-oxo-1,6-dihydro-2,2′-bipyrimidine-4-carboxamide]
19 | 133 | Cc1nc(C(=O)N[C@H](C)c2ccc(C(F)F)c(F)c2)cc(=O)[nH]1 [Example 657, N-{(1R)-1-[4-(difluoromethyl)-3-fluorophenyl]ethyl}-2-methyl-6-oxo-1,6-dihydropyrimidine-4-carboxamide]
20 | 51 | Cc1nc(C(=O)NC2(c3ccc(C(F)(F)F)cc3F)CC2)cc(=O)[nH]1 [Example 625, N-{1-[2-fluoro-4-(trifluoromethyl)phenyl]cyclopropyl}-2-methyl-6-oxo-1,6-dihydropyrimidine-4-carboxamide]
21 | 16 | Cc1nc(C(=O)NC2(c3ccc(C(F)(F)F)cc3Cl)CC2)cc(=O)[nH]1 [Example 637, N-{1-[2-chloro-4-(trifluoromethyl)phenyl]cyclopropyl}-2-methyl-6-oxo-1,6-dihydropyrimidine-4-carboxamide]
22 | 38 | CC(C)[C@@H](NC(=O)c1cc(=O)[nH]c(-c2ncccn2)n1)c1ccc(OC(F)(F)F)c(Br)c1 [Example 580, N-{(1R)-1-[3-bromo-4-(trifluoromethoxy)phenyl]-2-methylpropyl}-6-oxo-1,6-dihydro-2,2′-bipyrimidine-4-carboxamide]
23 | 24 | O=C(NC1(c2ccc3c(c2)OC(F)(F)O3)CC1)c1cc(=O)[nH]c(-c2ccccc2)n1 [Example 535, N-[1-(2,2-difluoro-1,3-benzodioxol-5-yl)cyclopropyl]-6-oxo-2-phenyl-1,6-dihydropyrimidine-4-carboxamide]
24 | 48 | Cc1nc(C(=O)N[C@@H](c2ccc3c(c2)OC(F)(F)O3)C(C)C)cc(=O)[nH]1 [Example 607, N-[(1R)-1-(2,2-difluoro-1,3-benzodioxol-5-yl)-2-methylpropyl]-2-methyl-6-oxo-1,6-dihydropyrimidine-4-carboxamide]
25 | 234 | C[C@@H](NC(=O)c1cc(=O)[nH]c(-c2ncco2)n1)c1ccc(C(F)(F)F)cc1 [Example 675, (R)-2-(oxazol-2-yl)-6-oxo-N-(1-(4-(trifluoromethyl)phenyl)ethyl)-1,6-dihydropyrimidine-4-carboxamide]
26 | 237 | Cc1nc(C(=O)N[C@H](C)c2ccc3c(c2)OC(F)(F)O3)cc(=O)[nH]1 [Example 606, N-[(1R)-1-(2,2-difluoro-1,3-benzodioxol-5-yl)ethyl]-2-methyl-6-oxo-1,6-dihydropyrimidine-4-carboxamide]
